System: HeLa or JURKAT cells
Experiment: Cytotoxicity assay (Alamar Blue) with guanosine rescue
Assay type: cell-based
Description: HeLa cells (DSMZ, ACC 57) and Jurkat cells (DSMZ, ACC 282) in exponential growth phase are exposed for 3 days to test compounds. The number of surviving cells is then determined by the Alamar Blue assay (Serotec Inc.). This assay incorporates a fluorometric growth indicator based on detection of metabolic activity. Specifically, the system incorporates an oxidation-reduction indicator that fluoresces in response to chemical reduction of the growth medium resulting from cell growth. As cells grow in culture, innate metabolic activity results in a chemical reduction of the immediate surrounding environment. Continued growth maintains a reduced environment while inhibition of growth maintains an oxidized environment. […] Fluorescence is monitored at 560 nm (Exc.) and 590 nm Em.
HeLa cells (1×10^3) or JURKAT cells (1×10^3) are plated in 100 μl MEM medium (with Earle's salt; Biochrom KG) containing 10% FBS, 2 mM L-glutamine, and non-essential animo acids in 96-well plates and incubated at 37° C. and 5% CO2 atmosphere. […] The fluorescence is then measured as described above and the LD50 is determined based on a sigmoidal dose response regression. […] Any toxicity still detected can then be ascribed either to other biological effects of the of T—L—C conjugate of mycophenolic acid, or is due to the very high intracellular concentration of mycophenolic acid, following concentrative uptake into the cell.

**Q.** For `COc1c(C)c2c(c(O)c1C/C=C(\C)CCC(=O)O)C(=O)OC2` [Mycophenolic acid], which “effect in the presence of guanosine” value (50 μM guanosine in culture medium) is on record?
**A.** The value was “completely removed”.

**Q.** What about the IC50 (normal culture conditions, HeLa or JURKAT) of the same compound?
**A.** Its IC50 is < 2000 nM.

Source: US7579324B2, “Conjugates of biologically active compounds, methods for their preparation and use, formulation and pharmaceutical applications thereof” (c-a-i-r biosciences GmbH, priority 2002, dated 2009)
